# Literature values in US11224220B2, “Surfactant composition based on glycine betaine amide salts, process for preparing same and uses thereof” (SURFACTGREEN, priority 2018, dated 2022).
# Settings: prior art values (U.S. Pat. No. 7,829,521; Green Chem., 2008, 10, 310-320; WO 2013/188508 Table 5)
row,surface tension,SMILES
1,50 mN/m,CCCCCCCCCCCCNC(=O)C[N+](C)(C)C [glycine betaine laurylamide]
2,38 mN/m,CCCCCCCCCCCCNC(=O)C[N+](C)(C)C [pure glycine betaine amide]
